In ChEMBL document CHEMBL5325467, “Discovery of novel hypoxia-activated, nitroimidazole constructed multi-target kinase inhibitors on the basis of AZD9291 for the treatment of human lung cancer” (Bioorg Med Chem, 2023):
Blank lines part the entries; values can stand above or below the molecule they belong to.

Assays:
[1] = target: Epidermal growth factor receptor (Homo sapiens, UniProt P00533, L858R/T790M); assay: Inhibition of EGFR L858R/T790M mutant (unknown origin) by mobility shift assay
[2] = Selectivity index, ratio of IC50 for inhibition of wild type EGFR (unknown origin) to IC50 for inhibition of EGFR L858R/T790M mutant (unknown origin)
[3] = target: T1, Epidermal growth factor receptor (Homo sapiens, UniProt P00533); assay: Inhibition of wild type EGFR (unknown origin) by mobility shift assay
T1 sequence (P00533 whole entry): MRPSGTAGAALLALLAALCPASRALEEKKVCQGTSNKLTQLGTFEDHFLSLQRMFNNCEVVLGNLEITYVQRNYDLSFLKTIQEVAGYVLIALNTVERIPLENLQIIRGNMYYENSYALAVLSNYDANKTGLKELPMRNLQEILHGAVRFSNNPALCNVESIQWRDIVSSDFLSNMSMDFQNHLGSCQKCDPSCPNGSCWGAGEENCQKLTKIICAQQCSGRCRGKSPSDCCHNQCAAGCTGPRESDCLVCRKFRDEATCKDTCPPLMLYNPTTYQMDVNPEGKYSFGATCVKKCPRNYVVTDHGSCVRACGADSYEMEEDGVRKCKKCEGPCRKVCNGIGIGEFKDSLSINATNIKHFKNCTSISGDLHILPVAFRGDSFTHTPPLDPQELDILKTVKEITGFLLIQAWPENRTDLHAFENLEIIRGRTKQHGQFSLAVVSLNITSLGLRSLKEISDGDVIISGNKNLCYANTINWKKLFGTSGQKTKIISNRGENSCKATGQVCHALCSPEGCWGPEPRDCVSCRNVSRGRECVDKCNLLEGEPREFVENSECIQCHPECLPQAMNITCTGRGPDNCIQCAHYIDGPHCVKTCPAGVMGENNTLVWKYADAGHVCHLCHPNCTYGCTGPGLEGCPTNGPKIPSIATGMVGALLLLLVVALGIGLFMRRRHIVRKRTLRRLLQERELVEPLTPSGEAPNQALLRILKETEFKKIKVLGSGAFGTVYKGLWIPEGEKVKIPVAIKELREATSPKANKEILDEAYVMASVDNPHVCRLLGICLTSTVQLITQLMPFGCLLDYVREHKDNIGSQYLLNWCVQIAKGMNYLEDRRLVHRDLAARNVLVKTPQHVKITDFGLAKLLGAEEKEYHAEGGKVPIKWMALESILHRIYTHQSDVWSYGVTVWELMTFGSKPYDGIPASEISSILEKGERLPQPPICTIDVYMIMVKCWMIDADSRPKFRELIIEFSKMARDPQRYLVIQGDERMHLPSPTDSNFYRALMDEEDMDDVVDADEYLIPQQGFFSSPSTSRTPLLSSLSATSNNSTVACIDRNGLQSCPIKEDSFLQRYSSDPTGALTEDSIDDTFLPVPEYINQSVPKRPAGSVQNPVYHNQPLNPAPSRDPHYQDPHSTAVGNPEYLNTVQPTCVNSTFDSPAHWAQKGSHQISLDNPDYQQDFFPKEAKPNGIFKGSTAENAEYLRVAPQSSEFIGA

[4] = test system: HCC827; assay: Antiproliferative activity against human HCC827 cells harboring EGFR del19 mutant assessed as inhibition of cell growth incubated for 72 hrs under normoxia condition by SRB assay; type: functional, cell-based; conditions: HCC827, 72 h
[5] = test system: NCI-H1975; assay: Antiproliferative activity against human NCI-H1975 cells harboring EGFR L858R/T790M mutant assessed as inhibition of cell growth incubated for 72 hrs under normoxia condition by SRB assay; type: functional, cell-based; conditions: NCI-H1975, 72 h
[6] = test system: NCI-H1975; assay: Antiproliferative activity against human NCI-H1975 cells harboring EGFR L858R/T790M mutant assessed as inhibition of cell growth incubated for 72 hrs under hypoxia condition by SRB assay; type: functional, cell-based; conditions: NCI-H1975, 72 h
[7] = test system: HCC827; assay: Antiproliferative activity against human HCC827 cells harboring EGFR del19 mutant assessed as inhibition of cell growth incubated for 72 hrs under hypoxia condition by SRB assay; type: functional, cell-based; conditions: HCC827, 72 h
[8] = Ratio of IC50 for antiproliferative activity against human NCI-H1975 cells harboring EGFR L858R/T790M mutant under normoxia condition to IC50 for antiproliferative activity against human NCI-H1975 cells harboring EGFR L858R/T790M mutant under hypoxia condition; type: functional
[9] = Ratio of IC50 for antiproliferative activity against human HCC827 cells harboring EGFR del19 mutant under normoxia condition to IC50 for antiproliferative activity against human HCC827 cells harboring EGFR del19 mutant under hypoxia condition; type: functional
[10] = target: T2, Vascular endothelial growth factor receptor 3 (Homo sapiens, UniProt P35916); assay: Inhibition of FLT4 (unknown origin)
[11] = (§1) Reductive activation in PBS at pH 7.4 assessed as 2-amino-3-[2-amino-5-[amino(carboxy)methyl]sulfanyl-1-[2-[2-[2-methoxy-5-[[4-(1-methylindol-3-yl)pyrimidin-2-yl]amino]phenoxy]ethoxy]ethyl]imidazol-4-yl]sulfanyl-propanoic acid metabolite formation at 1 uM incubated for 30 mins in presence of cysteine, NADPH and nitroreductase under normoxia condition by MS/MS analysis; type: ADME; conditions: buffer, pH 7.4, 0.5 h
[12] = target: Mitogen-activated protein kinase 10 (Homo sapiens) (UniProt P53779); assay: Inhibition of JNK3 (unknown origin) at 1 uM relative to control
[13] = target: T3, Proto-oncogene tyrosine-protein kinase ROS (Homo sapiens, UniProt P08922); assay: Inhibition of ROS1 (unknown origin) at 1 uM relative to control
T3 sequence (P08922 whole entry): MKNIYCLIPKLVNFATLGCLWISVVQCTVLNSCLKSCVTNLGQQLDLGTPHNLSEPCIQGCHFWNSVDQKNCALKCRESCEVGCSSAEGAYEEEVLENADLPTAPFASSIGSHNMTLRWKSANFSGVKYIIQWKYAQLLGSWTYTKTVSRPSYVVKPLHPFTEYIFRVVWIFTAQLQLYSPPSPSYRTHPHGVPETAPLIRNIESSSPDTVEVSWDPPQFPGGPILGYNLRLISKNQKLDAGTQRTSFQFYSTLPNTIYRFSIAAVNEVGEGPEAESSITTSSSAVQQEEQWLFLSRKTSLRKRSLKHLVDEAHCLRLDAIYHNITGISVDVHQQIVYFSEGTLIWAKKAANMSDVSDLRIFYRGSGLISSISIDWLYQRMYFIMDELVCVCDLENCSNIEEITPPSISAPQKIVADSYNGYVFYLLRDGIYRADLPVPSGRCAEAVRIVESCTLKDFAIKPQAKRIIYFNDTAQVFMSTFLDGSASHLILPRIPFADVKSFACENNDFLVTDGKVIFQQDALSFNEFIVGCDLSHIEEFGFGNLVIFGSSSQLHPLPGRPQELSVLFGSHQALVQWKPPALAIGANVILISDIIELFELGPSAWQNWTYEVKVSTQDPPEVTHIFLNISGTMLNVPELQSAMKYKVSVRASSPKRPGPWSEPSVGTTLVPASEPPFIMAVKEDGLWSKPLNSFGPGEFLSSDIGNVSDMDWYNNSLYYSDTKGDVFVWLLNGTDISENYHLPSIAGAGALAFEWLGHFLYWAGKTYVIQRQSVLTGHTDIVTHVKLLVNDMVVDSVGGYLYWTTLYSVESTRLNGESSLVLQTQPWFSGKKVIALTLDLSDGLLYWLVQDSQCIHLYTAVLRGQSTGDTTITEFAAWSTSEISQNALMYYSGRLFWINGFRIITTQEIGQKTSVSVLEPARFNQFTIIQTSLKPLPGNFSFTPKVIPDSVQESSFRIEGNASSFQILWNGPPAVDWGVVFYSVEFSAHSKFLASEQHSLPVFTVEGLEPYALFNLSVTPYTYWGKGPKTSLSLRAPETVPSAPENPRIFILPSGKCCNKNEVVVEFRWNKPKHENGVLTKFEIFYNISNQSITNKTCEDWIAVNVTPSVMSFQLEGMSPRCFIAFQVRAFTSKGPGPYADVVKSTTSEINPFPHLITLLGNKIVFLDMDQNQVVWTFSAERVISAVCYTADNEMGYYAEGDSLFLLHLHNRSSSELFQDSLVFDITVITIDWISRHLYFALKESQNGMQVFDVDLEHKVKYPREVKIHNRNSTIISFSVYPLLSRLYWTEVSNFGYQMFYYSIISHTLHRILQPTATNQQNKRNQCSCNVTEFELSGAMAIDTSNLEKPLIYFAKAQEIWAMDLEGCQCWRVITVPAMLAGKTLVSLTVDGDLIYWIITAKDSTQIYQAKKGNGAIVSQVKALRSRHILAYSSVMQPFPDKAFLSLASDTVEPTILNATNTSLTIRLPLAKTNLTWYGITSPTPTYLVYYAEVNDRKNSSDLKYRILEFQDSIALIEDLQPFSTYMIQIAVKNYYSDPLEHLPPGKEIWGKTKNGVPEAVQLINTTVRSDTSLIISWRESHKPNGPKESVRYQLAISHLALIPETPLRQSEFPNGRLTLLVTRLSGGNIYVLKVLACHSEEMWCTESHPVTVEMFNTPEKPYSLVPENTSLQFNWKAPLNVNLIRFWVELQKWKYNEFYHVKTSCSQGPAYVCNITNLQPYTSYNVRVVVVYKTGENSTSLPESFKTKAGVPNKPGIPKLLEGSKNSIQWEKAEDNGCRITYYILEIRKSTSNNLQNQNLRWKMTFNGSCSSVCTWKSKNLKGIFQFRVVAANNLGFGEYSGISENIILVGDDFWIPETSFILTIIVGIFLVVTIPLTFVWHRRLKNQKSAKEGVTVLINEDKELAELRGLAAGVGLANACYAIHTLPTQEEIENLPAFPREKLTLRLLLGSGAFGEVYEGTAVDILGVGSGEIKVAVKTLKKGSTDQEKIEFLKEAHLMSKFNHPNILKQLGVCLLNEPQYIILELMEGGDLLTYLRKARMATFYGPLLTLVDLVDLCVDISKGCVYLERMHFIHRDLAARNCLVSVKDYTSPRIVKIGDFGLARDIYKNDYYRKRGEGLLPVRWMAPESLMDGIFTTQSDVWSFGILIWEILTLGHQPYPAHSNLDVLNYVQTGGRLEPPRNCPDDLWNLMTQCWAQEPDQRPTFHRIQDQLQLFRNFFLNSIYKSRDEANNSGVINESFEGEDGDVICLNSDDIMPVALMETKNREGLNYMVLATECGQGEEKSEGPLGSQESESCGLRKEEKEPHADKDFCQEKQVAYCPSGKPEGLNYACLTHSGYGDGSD

[14] = Reductive activation in PBS at pH 7.4 assessed as A14-1 metabolite formation at 1 uM incubated for 30 mins in presence of cysteine, NADPH and nitroreductase under hypoxia condition by MS/MS analysis; type: ADME; conditions: buffer, pH 7.4, 0.5 h
[15] = Reductive activation in PBS at pH 7.4 assessed as A14-1 metabolite formation at 1 uM incubated for 30 mins in presence of cysteine, NADPH and nitroreductase under N2 condition by MS/MS analysis; type: ADME; conditions: buffer, pH 7.4, 0.5 h
[16] = target: Receptor-type tyrosine-protein kinase FLT3 (Homo sapiens, UniProt P36888); assay: Inhibition of FLT3 (unknown origin)
[17] = target: Cyclin-dependent kinase 4/cyclin D1 (Homo sapiens) (UniProt P11802+P24385); assay: Inhibition of CDK4/CyclinD1 (unknown origin) at 1 uM relative to control; type: protein-complex assay
[18] = target: ALK tyrosine kinase receptor (Homo sapiens) (UniProt Q9UM73); assay: Inhibition of ALK (unknown origin) at 1 uM relative to control
[19] = target: Tyrosine-protein kinase JAK3 (Homo sapiens) (UniProt P52333); assay: Inhibition of JAK3 (unknown origin) at 1 uM relative to control
[20] = target: RAC-alpha serine/threonine-protein kinase (Homo sapiens) (UniProt P31749); assay: Inhibition of AKT1 (unknown origin) at 1 uM relative to control
[21] = target: 3-phosphoinositide-dependent protein kinase 1 (Homo sapiens) (UniProt O15530); assay: Inhibition of PDK1 (unknown origin) at 1 uM relative to control
[22] = test system: Serine/threonine-protein kinase B-raf (Homo sapiens), P15056 [V600E]; assay: Inhibition of BRAF V600E mutant (unknown origin) at 1 uM relative to control
[23] = target: Tyrosine-protein kinase ITK/TSK (Homo sapiens) (UniProt Q08881); assay: Inhibition of ITK (unknown origin) at 1 uM relative to control
[24] = target: Mast/stem cell growth factor receptor Kit (Homo sapiens) (UniProt P10721); assay: Inhibition of KIT (unknown origin) at 1 uM relative to control
[25] = target: T4, Tyrosine-protein kinase JAK2 (Homo sapiens, UniProt O60674); assay: Inhibition of JAK2 (unknown origin)
[26] = as §1, with “hypoxia” for “normoxia”; type: ADME; conditions: buffer, pH 7.4, 0.5 h
[27] = target: Receptor-type tyrosine-protein kinase FLT3 (Homo sapiens) (UniProt P36888); assay: Inhibition of FLT3 (unknown origin) at 1 uM relative to control
[28] = target: Proto-oncogene tyrosine-protein kinase receptor Ret (Homo sapiens) (UniProt P07949); assay: Inhibition of RET (unknown origin) at 1 uM relative to control
[29] = target: Proto-oncogene tyrosine-protein kinase Src (Homo sapiens) (UniProt P12931); assay: Inhibition of SRC (unknown origin) at 1 uM relative to control
[30] = target: Vascular endothelial growth factor receptor 2 (Homo sapiens) (UniProt P35968); assay: Inhibition of KDR (unknown origin) at 1 uM relative to control
[31] = test system: Epidermal growth factor receptor (Homo sapiens), P00533 [L858R,T790M,C797S]; assay: Inhibition of EGFR L858R/T790M/C797S triple mutant (unknown origin) at 1 uM relative to control
[32] = target: High affinity nerve growth factor receptor (Homo sapiens) (UniProt P04629); assay: Inhibition of TRKA (unknown origin) at 1 uM relative to control
[33] = target: Tyrosine-protein kinase receptor UFO (Homo sapiens) (UniProt P30530); assay: Inhibition of AXL (unknown origin) at 1 uM relative to control
[34] = target: T1, Epidermal growth factor receptor; assay: Inhibition of EGFR (unknown origin) at 1 uM relative to control
[35] = target: Mitogen-activated protein kinase 1 (Homo sapiens) (UniProt P28482); assay: Inhibition of ERK2 (unknown origin) at 1 uM relative to control
Chain of Mitogen-activated protein kinase 1 (Homo sapiens) (P28482 whole entry): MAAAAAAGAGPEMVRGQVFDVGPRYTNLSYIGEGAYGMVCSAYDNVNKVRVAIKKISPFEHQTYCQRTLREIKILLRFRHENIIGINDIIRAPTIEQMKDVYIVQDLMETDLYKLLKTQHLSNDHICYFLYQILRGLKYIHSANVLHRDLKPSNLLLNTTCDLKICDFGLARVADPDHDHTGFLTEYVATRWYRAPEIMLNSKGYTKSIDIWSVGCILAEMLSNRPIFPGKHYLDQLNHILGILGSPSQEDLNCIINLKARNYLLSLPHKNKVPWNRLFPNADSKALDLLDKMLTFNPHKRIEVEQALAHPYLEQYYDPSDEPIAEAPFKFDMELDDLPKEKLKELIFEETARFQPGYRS

[36] = target: Focal adhesion kinase 1 (Homo sapiens) (UniProt Q05397); assay: Inhibition of FAK (unknown origin) at 1 uM relative to control
[37] = target: Hepatocyte growth factor receptor (Homo sapiens) (UniProt P08581); assay: Inhibition of MET (unknown origin) at 1 uM relative to control
[38] = target: MAP kinase-activated protein kinase 2 (Homo sapiens) (UniProt P49137); assay: Inhibition of MAPKAPK2 (unknown origin) at 1 uM relative to control
[39] = target: Fibroblast growth factor receptor 1 (Homo sapiens) (UniProt P11362); assay: Inhibition of FGFR1 (unknown origin) at 1 uM relative to control
[40] = target: Receptor tyrosine-protein kinase erbB-2 (Homo sapiens) (UniProt P04626); assay: Inhibition of HER2 (unknown origin) at 1 uM relative to control
[41] = target: T5, Platelet-derived growth factor receptor alpha (Homo sapiens, UniProt P16234); assay: Inhibition of PDGFRalpha (unknown origin) at 1 uM relative to control
[42] = species on record: Homo sapiens; assay: Inhibition of ABL (unknown origin) at 1 uM relative to control
[43] = as §1, with “N2” for “normoxia”; type: ADME; conditions: buffer, pH 7.4, 0.5 h
[44] = target: T4, Tyrosine-protein kinase JAK2; assay: Inhibition of JAK2 (unknown origin) at 1 uM relative to control
[45] = Reductive activation in PBS at pH 7.4 assessed as hydroxylamine intermediate formation at 1 uM incubated for 30 mins in presence of cysteine, NADPH and nitroreductase under hypoxia condition by MS/MS analysis; conditions: buffer, pH 7.4, 0.5 h
[46] = target: Tyrosine-protein kinase SYK (Homo sapiens) (UniProt P43405); assay: Inhibition of SYK (unknown origin) at 1 uM relative to control
[47] = Reductive activation in PBS at pH 7.4 assessed as A14-1 metabolite formation at 1 uM incubated for 30 mins in presence of cysteine, NADPH and nitroreductase under normoxia condition by MS/MS analysis; type: ADME; conditions: buffer, pH 7.4, 0.5 h
[48] = target: Tyrosine-protein kinase BTK (Homo sapiens) (UniProt Q06187); assay: Inhibition of BTK (unknown origin) at 1 uM relative to control
[49] = target: T3, Proto-oncogene tyrosine-protein kinase ROS; assay: Inhibition of ROS1 (unknown origin)
[50] = target: T5, Platelet-derived growth factor receptor alpha; assay: Inhibition of PDGFRalpha (unknown origin)
[51] = target: T2, Vascular endothelial growth factor receptor 3; assay: Inhibition of FLT4 (unknown origin) at 1 uM relative to control

Chain of Epidermal growth factor receptor (Homo sapiens, UniProt P00533, L858R/T790M) (P00533 25-1210 T790M/L858R limits assumed): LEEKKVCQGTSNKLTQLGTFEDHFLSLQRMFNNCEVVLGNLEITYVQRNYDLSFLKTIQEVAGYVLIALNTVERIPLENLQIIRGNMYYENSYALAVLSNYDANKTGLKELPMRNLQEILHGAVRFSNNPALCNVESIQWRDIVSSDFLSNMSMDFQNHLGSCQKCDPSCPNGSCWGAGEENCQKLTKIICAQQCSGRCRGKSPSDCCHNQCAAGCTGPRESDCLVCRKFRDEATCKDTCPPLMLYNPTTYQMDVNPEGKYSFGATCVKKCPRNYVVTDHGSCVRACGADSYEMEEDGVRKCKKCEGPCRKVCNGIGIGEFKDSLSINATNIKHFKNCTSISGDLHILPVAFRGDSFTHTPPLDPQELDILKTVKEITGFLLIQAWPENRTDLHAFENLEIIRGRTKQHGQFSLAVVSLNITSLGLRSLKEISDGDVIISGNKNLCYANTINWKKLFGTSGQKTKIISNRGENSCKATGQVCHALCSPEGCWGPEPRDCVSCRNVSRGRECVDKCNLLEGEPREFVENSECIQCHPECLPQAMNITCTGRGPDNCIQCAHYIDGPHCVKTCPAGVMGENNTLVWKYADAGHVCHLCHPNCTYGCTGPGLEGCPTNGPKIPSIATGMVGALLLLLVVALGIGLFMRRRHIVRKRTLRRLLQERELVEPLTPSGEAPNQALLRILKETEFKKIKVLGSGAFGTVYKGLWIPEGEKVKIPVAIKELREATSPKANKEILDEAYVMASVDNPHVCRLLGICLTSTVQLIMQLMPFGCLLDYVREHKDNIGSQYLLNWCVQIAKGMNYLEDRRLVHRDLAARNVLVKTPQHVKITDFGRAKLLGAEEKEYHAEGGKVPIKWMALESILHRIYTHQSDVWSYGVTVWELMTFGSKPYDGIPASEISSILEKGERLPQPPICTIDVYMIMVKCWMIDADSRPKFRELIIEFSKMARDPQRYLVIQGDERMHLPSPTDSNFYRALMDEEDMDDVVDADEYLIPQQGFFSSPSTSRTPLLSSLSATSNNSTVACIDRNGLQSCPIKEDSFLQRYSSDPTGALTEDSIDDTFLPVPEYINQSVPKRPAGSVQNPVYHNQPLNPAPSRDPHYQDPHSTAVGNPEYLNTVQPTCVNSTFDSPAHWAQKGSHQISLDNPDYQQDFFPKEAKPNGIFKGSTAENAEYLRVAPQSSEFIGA

Compound: Cn1cc(-c2ccnc(Nc3ccc(Cl)c(OCCOCCn4ccnc4[N+](=O)[O-])c3)n2)c2ccccc21
IC50 [1]: 2670 nM

Compound: Cn1cc(-c2ccnc(Nc3ccc(OCCOCCn4ccnc4[N+](=O)[O-])cc3)n2)c2ccccc21
Ratio IC50 [2]: 18.3
IC50 [1]: 512 nM
IC50 [3]: 9370 nM

Compound: Cn1cc(-c2ccnc(Nc3cccc(C(=O)NCCOCCn4ccnc4[N+](=O)[O-])c3)n2)c2ccccc21
IC50 [1]: 818 nM

Compound: C=CC(=O)Nc1cc(Nc2nccc(-c3cn(C)c4ccccc34)n2)c(OC)cc1N(C)CCN(C)C [OSIMERTINIB]
IC50 [4]: 33.7 nM
IC50 [7]: 32.3 nM

Compound: Cn1cc(-c2ccnc(Nc3ccc(OCCCCn4cnc([N+](=O)[O-])c4)c(F)c3)n2)c2ccccc21
IC50 [1]: 829 nM

Compound: Cn1cc(-c2ccnc(Nc3cccc(OCCCCn4ccnc4[N+](=O)[O-])c3)n2)c2ccccc21
Ratio IC50 [2]: 15.7
IC50 [1]: 227 nM
IC50 [3]: 3570 nM

Compound: COc1ccc(Nc2nccc(-c3cn(C)c4ccccc34)n2)cc1OCCOCCn1ccnc1[N+](=O)[O-]
IC50 [10]: 227 nM
Drug metabolism [11]: Metabolite_Notdetected
inhibition [12]: 62.7%
Ratio IC50 [8]: 5.63
inhibition [13]: 84.7%
IC50 [1]: 177 nM
Drug metabolism [14]: Metabolite_Detected
Drug metabolism [15]: Metabolite_Detected
IC50 [4]: 25 nM
IC50 [16]: 108 nM
inhibition [17]: 8.02%
inhibition [18]: 42.7%
inhibition [19]: 43.2%
IC50 [5]: 26.2 nM
inhibition [20]: 11.5%
inhibition [21]: 8%
inhibition [22]: 65.4%
inhibition [23]: 27.9%
inhibition [24]: 38.1%
IC50 [25]: 30.9 nM
Drug metabolism [26]: Metabolite_Detected
inhibition [27]: 90.5%
inhibition [28]: -0.41%
inhibition [29]: 36.5%
IC50 [3]: 1570 nM
IC50 [6]: 4.66 nM
inhibition [30]: 50%
IC50 [7]: 5.26 nM
inhibition [31]: 50.9%
inhibition [32]: 29%
inhibition [33]: 44.3%
inhibition [34]: 34.8%
inhibition [35]: 32.4%
inhibition [36]: 9%
inhibition [37]: 26.6%
inhibition [38]: 17.4%
inhibition [39]: -7.07%
Ratio IC50 [9]: 4.75
inhibition [40]: 11.8%
inhibition [41]: 88.2%
inhibition [42]: 23.9%
Drug metabolism [43]: Metabolite_Detected
inhibition [44]: 79.2%
Drug metabolism [45]: Metabolite_Detected
inhibition [46]: 17%
Drug metabolism [47]: Metabolite_Notdetected
inhibition [48]: 27.4%
IC50 [49]: 107 nM
IC50 [50]: 42.5 nM
inhibition [51]: 85.7%

The next lines start with results.

IC50 [1]: 1180 nM
Compound: Cn1cc(-c2ccnc(Nc3ccc(OCCCCn4ccnc4[N+](=O)[O-])cc3)n2)c2ccccc21

Ratio IC50 [2]: 8.08
IC50 [1]: 233 nM
IC50 [3]: 1880 nM
Compound: Cn1cc(-c2ccnc(Nc3cccc(OCCCCn4cnc([N+](=O)[O-])c4)c3)n2)c2ccccc21

Ratio IC50 [2]: 9.05
IC50 [1]: 442 nM
IC50 [3]: 4000 nM
Compound: Cn1cc(-c2ccnc(Nc3cccc(OCCOCCn4ccnc4[N+](=O)[O-])c3)n2)c2ccccc21

IC50 [1]: 4030 nM
Compound: Cn1cc(-c2ccnc(Nc3cccc(COCCOCCn4ccnc4[N+](=O)[O-])c3)n2)c2ccccc21

Ratio IC50 [2]: 28.4
IC50 [1]: 262 nM
IC50 [3]: 7440 nM
Compound: CC(=O)c1ccc(Nc2nccc(-c3cn(C)c4ccccc34)n2)cc1OCCOCCn1ccnc1[N+](=O)[O-]

IC50 [1]: 199 nM
IC50 [4]: 32.1 nM
IC50 [5]: 31 nM
IC50 [3]: 7660 nM
IC50 [6]: 7.59 nM
IC50 [7]: 6.28 nM
Compound: Cn1cc(-c2ccnc(Nc3cc(OCCOCCn4ccnc4[N+](=O)[O-])ccc3F)n2)c2ccccc21
Ratio IC50 [8]: 4.08
Ratio IC50 [9]: 5.11

Ratio IC50 [2]: > 13.8
IC50 [1]: 722 nM
IC50 [3]: > 10000 nM
Compound: Cn1cc(-c2ccnc(Nc3ccc(OCCOCCn4ccnc4[N+](=O)[O-])c(F)c3)n2)c2ccccc21

IC50 [1]: 1310 nM
Compound: Cc1ccc(OCCOCCn2ccnc2[N+](=O)[O-])cc1Nc1nccc(-c2cn(C)c3ccccc23)n1

Ratio IC50 [2]: 20.2
IC50 [1]: 456 nM
IC50 [3]: 9200 nM
Compound: Cc1cc(Nc2nccc(-c3cn(C)c4ccccc34)n2)ccc1OCCOCCn1ccnc1[N+](=O)[O-]
